Assay results as given in patent publication US5705356A, “Reagent for invitro diagnostic determination of bicarbonate” (Trace Scientific Limited, priority 1993, dated 1998).

Biological target: T1, Leucine Dehydrogenase (L.D) (Bacillus cereus, UniProt P0A393)
T1 sequence (P0A393 1-366): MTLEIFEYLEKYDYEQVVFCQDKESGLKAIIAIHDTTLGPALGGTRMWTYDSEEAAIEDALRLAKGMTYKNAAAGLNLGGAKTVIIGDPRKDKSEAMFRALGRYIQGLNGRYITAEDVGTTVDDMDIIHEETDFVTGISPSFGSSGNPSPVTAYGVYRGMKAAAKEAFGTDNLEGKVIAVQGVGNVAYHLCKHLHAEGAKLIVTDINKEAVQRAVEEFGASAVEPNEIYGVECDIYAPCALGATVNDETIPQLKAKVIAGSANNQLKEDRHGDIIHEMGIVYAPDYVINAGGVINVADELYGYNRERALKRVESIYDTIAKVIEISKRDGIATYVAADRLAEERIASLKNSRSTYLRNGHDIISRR
Test: Relative activity of substrates with leucine dehydrogenase (vs L-leucine)
Assay type: biochemical
Details: relative to L-leucine (100%)
Description: Wherein Leucine Dehydrogenase (L.D) is used as the enzyme according to the reaction [drawing 9] suitable substrates and their activity relative to L-leucine (100%) are

Compound | Relative Activity
CC(C)C[C@H](N)C(=O)O [L-leucine] | 100%
CCCC[C@H](N)C(=O)O [L-Norleucine] | 10%
CCC[C@H](N)C(=O)O [L-Norvaline] | 41%
CSCC[C@H](N)C(=O)O [L-Methionine] | 0.6%
CC(C)[C@H](N)C(=O)O [L-Valine] | 74%
CC[C@H](C)[C@H](N)C(=O)O [L-Isoleucine] | 58%
N[C@@H](CS)C(=O)O [L-Cysteine] | 0.3%

Tested on: Glucose Dehydrogenase (GLD)
Test: Relative activity of substrates with glucose dehydrogenase (vs D-glucose)
Assay type: biochemical
Details: rate of reaction relative to D-glucose (100%), NAD coenzyme
Description: If glucose dehydrogenase is used as the enzyme, preferred substrates for reduction of the NAD coenzyme and their relative degree of cross reactivity when compared to D-Glucose are:

Compound | Relative Activity
OC[C@H]1O[C@@H](O)[C@H](O)[C@@H](O)[C@@H]1O [D-Glucose] | 100%
OC[C@@H](O)[C@@H](O)[C@H](O)[C@@H](O)CO [D-sorbitol] | 0.1%
O[C@H]1[C@H](O)[C@@H](O)[C@H](O)[C@@H](O)[C@H]1O [inositol] | 0.2%
OC[C@H]1O[C@@H](O[C@H]2[C@H](O)[C@@H](O)C(O)O[C@@H]2CO)[C@H](O)[C@@H](O)[C@H]1O (stereo partly drawn) [D-lactose] | 1.2%
O=C(CO)[C@@H](O)[C@H](O)[C@H](O)CO [D-fructose] | 0.8%
OC[C@H]1OC(O)[C@@H](O)[C@@H](O)[C@@H]1O (stereo partly drawn) [D-mannose] | 2.4%
OC[C@H]1O[C@H](O[C@H]2[C@H](O)[C@@H](O)[C@H](O)O[C@@H]2CO)[C@H](O)[C@@H](O)[C@@H]1O [maltose] | 3.9%
xylose | 8.9%
OC[C@H]1OC(O)[C@H](O)[C@@H](O)[C@H]1O (stereo partly drawn) [D-galactose] | 0.1%
O=C(CO)[C@@H](O)[C@H](O)[C@@H](O)CO [L-sorbose] | 0.3%

Biological target: T2, G-6-P-DH (Saccharomyces cerevisiae, UniProt P11412)
T2 sequence (P11412 1-505): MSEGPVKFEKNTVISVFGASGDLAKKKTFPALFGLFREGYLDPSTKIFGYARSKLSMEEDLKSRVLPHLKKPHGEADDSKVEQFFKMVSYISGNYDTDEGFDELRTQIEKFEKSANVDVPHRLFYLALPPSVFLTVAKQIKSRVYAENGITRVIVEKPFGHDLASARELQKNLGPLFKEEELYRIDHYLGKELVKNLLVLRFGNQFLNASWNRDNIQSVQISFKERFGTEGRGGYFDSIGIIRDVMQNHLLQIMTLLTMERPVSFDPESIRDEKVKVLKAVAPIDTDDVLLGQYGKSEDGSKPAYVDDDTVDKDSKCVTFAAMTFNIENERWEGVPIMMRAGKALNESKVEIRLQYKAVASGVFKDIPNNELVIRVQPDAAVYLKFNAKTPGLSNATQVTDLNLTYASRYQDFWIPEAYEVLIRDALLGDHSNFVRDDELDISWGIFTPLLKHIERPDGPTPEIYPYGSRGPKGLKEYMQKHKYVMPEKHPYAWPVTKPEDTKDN
Test: Relative reactivity of substrates with G-6-P-DH, NADP as coenzyme (vs G-6-P)
Assay type: biochemical, Yeast
Details: relative to G-6-P-DH/G-6-P pair

Compound | relative reactivity
O=P(O)(O)OC[C@H]1OC(O)C[C@@H](O)[C@@H]1O (some centres unmarked) [2-deoxyglucose-6-P] | 18%
O=P(O)(O)OC[C@H]1OC(O)[C@H](O)[C@@H](O)[C@H]1O (some centres unmarked) [galactose-6-P] | 25%
N[C@H]1C(O)O[C@H](COP(=O)(O)O)[C@@H](O)[C@@H]1O (some centres unmarked) [glucosamine-6-P] | 2%

Biological target: T3, L-Alanine Dehydrogenase (A.D) (Lysinibacillus sphaericus, UniProt P17556)
T3 sequence (P17556 1-372): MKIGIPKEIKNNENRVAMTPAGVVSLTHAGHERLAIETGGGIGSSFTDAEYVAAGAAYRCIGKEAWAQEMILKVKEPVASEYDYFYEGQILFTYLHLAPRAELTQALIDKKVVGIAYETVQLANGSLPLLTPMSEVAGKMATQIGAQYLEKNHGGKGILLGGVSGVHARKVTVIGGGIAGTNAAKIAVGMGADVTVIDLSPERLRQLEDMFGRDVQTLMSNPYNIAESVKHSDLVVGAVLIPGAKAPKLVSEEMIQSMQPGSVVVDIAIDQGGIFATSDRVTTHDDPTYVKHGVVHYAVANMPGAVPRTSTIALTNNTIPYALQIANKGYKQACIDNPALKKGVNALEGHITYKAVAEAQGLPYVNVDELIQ
Test: Relative activity of substrate with L-alanine dehydrogenase (vs L-alanine)
Assay type: biochemical
Details: relative to L-alanine (100%)
Description: If L-Alanine Dehydrogenase (A.D) is used as the enzyme in a reaction system similar to that used for Leucine Dehydrogenase, a suitable substrate and its activity relative to L-alanine (100%) is […]

Compound | Relative Activity
N[C@@H](CO)C(=O)O [L-serine] | 5%
C[C@H](N)C(=O)O [L-alanine] | 100%

Biological target: T4, 3α-Hydroxysteroid Dehydrogenase (H.DH) (Comamonas testosteroni, UniProt P80702)
T4 sequence (P80702 1-257): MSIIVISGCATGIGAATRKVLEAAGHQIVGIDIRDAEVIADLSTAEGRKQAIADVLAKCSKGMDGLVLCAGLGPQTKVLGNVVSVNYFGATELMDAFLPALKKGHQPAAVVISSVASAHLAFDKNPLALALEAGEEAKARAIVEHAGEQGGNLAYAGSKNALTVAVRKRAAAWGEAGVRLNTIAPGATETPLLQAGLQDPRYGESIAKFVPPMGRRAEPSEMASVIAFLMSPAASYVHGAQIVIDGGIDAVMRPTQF
Test: Relative activity of substrates with 3α-hydroxysteroid dehydrogenase (vs cholic acid)
Assay type: biochemical
Details: relative to Cholic Acid
Description: Their activities relative to Cholic Acid are also listed.

Compound | Relative Activity
Etiocholic Acid | 60%
C[C@H](CCC(=O)O)[C@H]1CC[C@H]2[C@@H]3CC[C@@H]4C[C@H](O)CC[C@]4(C)[C@H]3CC[C@]12C [Lithocholic Acid] | 96%

Tested on: L-Lactate Dehydrogenase (LDH)
Test: Relative activity of substrates with L-lactate dehydrogenase (vs L-lactate)
Assay type: biochemical, Lactobacillus sp.
Details: relative to L-Lactate
Description: Wherein, L-Lactate Dehydrogenase (LDH) from Lactobacillus sp. is used as the enzyme in the following reaction, [drawing 10] suitable substrates and their activity relative to L-Lactate are:

Compound | Relative Activity
O=C(O)CC(=O)C(=O)O [Oxoloacetate] | 36%

Biological target: T5, Glycerol Dehydrogenase (GLY.DH) (Geobacillus stearothermophilus, UniProt P32816)
T5 sequence (P32816 1-370): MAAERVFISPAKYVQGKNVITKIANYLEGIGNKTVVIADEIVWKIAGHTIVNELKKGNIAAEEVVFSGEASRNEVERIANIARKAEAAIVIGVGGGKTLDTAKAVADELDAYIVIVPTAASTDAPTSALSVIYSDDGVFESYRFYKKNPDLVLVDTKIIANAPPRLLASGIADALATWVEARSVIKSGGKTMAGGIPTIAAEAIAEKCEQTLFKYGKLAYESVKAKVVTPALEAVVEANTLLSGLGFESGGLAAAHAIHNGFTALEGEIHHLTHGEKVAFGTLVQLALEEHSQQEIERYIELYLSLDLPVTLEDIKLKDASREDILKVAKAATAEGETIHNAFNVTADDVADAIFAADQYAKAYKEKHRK
Test: Relative activity of substrates with glycerol dehydrogenase (vs glycerol)
Assay type: biochemical
Details: relative to glycerol (100%)
Description: Alternatively, using Glycerol Dehydrogenase (GLY.DH) as the enzyme, suitable substrates in the reaction [drawing 8] and their activity relative to glycerol (100%) are

Compound | Relative Activity
CC(O)C(C)O (centres unmarked) [2,3-Butanediol] | 52.6%
OCC(O)CO [glycerol] | 100%
OCCO [Ethylene glycol] | 7.8%
OCC(O)CCl (stereo not drawn) [Glycerol-α-monochlorohydrin] | 48.5%
